Measurements from patent US11365192B2, “Pyridine compound substituted with azole” (TAISHO PHARMACEUTICAL CO., LTD., priority 2017, dated 2022).

Legend:
human CYP4F2 = human CYP4F2 (Homo sapiens (Human), UniProt P78329); assay: Inhibition test against 20-HETE producing enzyme CYP4F2 (luciferine derivative, luminescence); format: biochemical; conditions: human CYP4F2, luciferine derivative, luminescence
How it was run: (§1)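 E. coli membranes (100 μg/mL protein) expressing human enzyme, room temperature 60 min, luciferin-derivative luminescence; IC50 from % inhibition. CYP4F2: 50 mM KPO4 pH 7.4, 2.5 μM substrate, 1 mM NADPH. CYP4A11: 100 mM Tris-HCl pH 7.5, 60 μM substrate, NADP+/glucose 6-phosphate/G6PDH regenerating system, 3.3 mM MgCl2.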

human CYP4A11 = human CYP4A11 (Homo sapiens (Human), UniProt Q02928); assay: Inhibition test against 20-HETE producing enzyme CYP4A11 (luciferine derivative, luminescence); format: biochemical; conditions: human CYP4A11, luciferine derivative, luminescence
How it was run: as §1

Sequence of human CYP4F2 (P78329 5-520): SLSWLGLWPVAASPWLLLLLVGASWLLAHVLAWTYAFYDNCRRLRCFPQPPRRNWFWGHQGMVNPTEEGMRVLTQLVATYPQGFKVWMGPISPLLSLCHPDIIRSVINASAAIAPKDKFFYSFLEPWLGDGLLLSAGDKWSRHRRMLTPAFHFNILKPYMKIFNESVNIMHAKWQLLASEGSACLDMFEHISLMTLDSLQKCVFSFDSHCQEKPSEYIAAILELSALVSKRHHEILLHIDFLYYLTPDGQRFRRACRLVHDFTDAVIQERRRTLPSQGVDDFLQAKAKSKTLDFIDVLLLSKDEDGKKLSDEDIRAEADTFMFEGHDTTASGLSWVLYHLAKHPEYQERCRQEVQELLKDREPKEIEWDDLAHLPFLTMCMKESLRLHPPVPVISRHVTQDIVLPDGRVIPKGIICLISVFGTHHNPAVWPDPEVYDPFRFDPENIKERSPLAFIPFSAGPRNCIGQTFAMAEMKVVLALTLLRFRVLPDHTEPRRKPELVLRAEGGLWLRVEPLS
Sequence of human CYP4A11 (Q02928 5-519): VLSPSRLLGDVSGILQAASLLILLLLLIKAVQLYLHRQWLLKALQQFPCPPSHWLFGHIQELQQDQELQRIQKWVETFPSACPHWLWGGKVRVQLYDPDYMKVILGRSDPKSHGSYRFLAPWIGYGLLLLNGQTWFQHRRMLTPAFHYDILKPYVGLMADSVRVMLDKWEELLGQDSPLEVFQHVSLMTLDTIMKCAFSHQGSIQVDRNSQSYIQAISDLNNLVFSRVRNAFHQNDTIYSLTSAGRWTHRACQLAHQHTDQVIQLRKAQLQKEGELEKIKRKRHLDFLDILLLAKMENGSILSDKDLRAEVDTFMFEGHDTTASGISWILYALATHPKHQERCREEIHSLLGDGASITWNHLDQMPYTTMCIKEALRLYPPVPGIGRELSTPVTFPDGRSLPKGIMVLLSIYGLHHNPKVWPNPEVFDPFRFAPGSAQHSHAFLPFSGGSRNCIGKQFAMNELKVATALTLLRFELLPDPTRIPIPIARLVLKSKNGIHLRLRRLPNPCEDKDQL

SMILES	IC50 (human CYP4F2) [nM]	IC50 (human CYP4A11) [nM]
CS(=O)(=O)NC(=O)c1cccc(COc2ccc(-c3ccn[nH]3)nc2)c1 [Example 44-1, N-Methylsulfonyl-3-[[6-(1H-pyrazol-5-yl)-3-pyridinyl]oxymethyl]benzamide]	7500	49
CN(C(=O)c1cccc(COc2ccc(-c3ccn[nH]3)nc2)c1)S(C)(=O)=O [Example 44-2]	73	340
CS(=O)(=O)NC(=O)Cc1cccc(COc2ccc(-c3ccn[nH]3)nc2)c1 [Example 44-3]	11000	44
CN(C(=O)Cc1cccc(COc2ccc(-c3ccn[nH]3)nc2)c1)S(C)(=O)=O [Example 44-4]	290	410
CS(=O)(=O)NC(=O)CCc1cccc(COc2ccc(-c3ccn[nH]3)nc2)c1 [Example 44-5]	2700	31
CN(C(=O)CCc1cccc(COc2ccc(-c3ccn[nH]3)nc2)c1)S(C)(=O)=O [Example 44-6]	45	230
NC(=O)c1cc(COc2ccc(-c3ccn[nH]3)nc2)ccn1 [Example 44-7, 4-[[6-(1H-Pyrazol-5-yl)-3-pyridinyl]oxymethyl]-2-pyridinecarboxamide]	85	3800
O=C(O)CCNC(=O)c1cccc(COc2ccc(-c3ccn[nH]3)nc2)c1 [Example 45-1, 3-[[Oxo-[3-[[6-(1H-pyrazol-5-yl)-3-pyridinyl]oxymethyl]phenyl]methyl]amino]propanoic Acid]	7600	120
CN(CCC(=O)O)C(=O)c1cccc(COc2ccc(-c3ccn[nH]3)nc2)c1 [Example 45-2]	3200	150
CC(C)(CNC(=O)c1cccc(COc2ccc(-c3ccn[nH]3)nc2)c1)C(=O)O [Example 45-3]	6100	91
O=C(NCC1(C(=O)O)CC1)c1cccc(COc2ccc(-c3ccn[nH]3)nc2)c1 [Example 45-4]	6400	86
O=C(NCC1(C(=O)O)CCCC1)c1cccc(COc2ccc(-c3ccn[nH]3)nc2)c1 [Example 45-5]	750	74
O=C(NCC1(C(=O)O)CCOCC1)c1cccc(COc2ccc(-c3ccn[nH]3)nc2)c1 [Example 45-6]	4500	250
O=C(O)C[C@H](NC(=O)c1cccc(COc2ccc(-c3ccn[nH]3)nc2)c1)c1ccccc1 [Example 45-7]	2900	780
O=C(O)C[C@@H](NC(=O)c1cccc(COc2ccc(-c3ccn[nH]3)nc2)c1)c1ccccc1 [Example 45-8]	1900	130
C[C@H](NC(=O)c1cccc(COc2ccc(-c3ccn[nH]3)nc2)c1)C(=O)O [Example 45-9]	4800	82
C[C@@H](NC(=O)c1cccc(COc2ccc(-c3ccn[nH]3)nc2)c1)C(=O)O [Example 45-10]	10000	180
O=C(N[C@@H](Cc1ccccc1)C(=O)O)c1cccc(COc2ccc(-c3ccn[nH]3)nc2)c1 [Example 45-11]	1200	23
O=C(N[C@H](Cc1ccccc1)C(=O)O)c1cccc(COc2ccc(-c3ccn[nH]3)nc2)c1 [Example 45-12]	890	220
O=C(NC1(C(=O)O)CCOCC1)c1cccc(COc2ccc(-c3ccn[nH]3)nc2)c1 [Example 45-13]	6800	240
CC(C)(CCNC(=O)c1cccc(COc2ccc(-c3ccn[nH]3)nc2)c1)C(=O)O [Example 45-14]	410	51
CC(C)(CCNC(=O)c1cc(COc2ccc(-c3ccn[nH]3)nc2)ccn1)C(=O)O [Example 45-15]	180	1200
CC(C)(CCNC(=O)c1cccc(COc2ccc(-c3ccn[nH]3)nc2)n1)C(=O)O [Example 45-16]	3400	120
CC(C)(CCNC(=O)c1cncc(COc2ccc(-c3ccn[nH]3)nc2)c1)C(=O)O [Example 45-17]	1000	510
CN(CCC(C)(C)C(=O)O)C(=O)c1cccc(COc2ccc(-c3ccn[nH]3)nc2)c1 [Example 45-18]	270	440
O=C(N[C@H]1CC[C@@H](C(=O)O)CC1)c1cccc(COc2ccc(-c3ccn[nH]3)nc2)c1 [Example 45-19]	13000	1000
O=C(N[C@H]1CC[C@H](C(=O)O)CC1)c1cccc(COc2ccc(-c3ccn[nH]3)nc2)c1 [Example 45-20]	2100	410
O=C(N[C@H]1C[C@@H](C(=O)O)C1)c1cccc(COc2ccc(-c3ccn[nH]3)nc2)c1 [Example 45-21]	6100	580
O=C(N[C@H]1C[C@H](C(=O)O)C1)c1cccc(COc2ccc(-c3ccn[nH]3)nc2)c1 [Example 45-22]	2800	97
O=C(NC12CC(C(=O)O)(C1)C2)c1cccc(COc2ccc(-c3ccn[nH]3)nc2)c1 [Example 45-23]	3900	710
